Test results published in patent US9062008B2, “Compounds useful as inhibitors of ATR kinase” (Vertex Pharmaceuticals Incorporated, priority 2010, dated 2015).

Biological target: T1, full-length ATR (Homo sapiens, UniProt Q13535)
T1 construct: Assays were carried out at 25° C. in the presence of 5 nM full-length ATR
Experiment: ATR Inhibition Assay (radioactive-phosphate incorporation)
Type: biochemical
Settings: for % inhibition of ATR / inhibition at 8 µM: at 8 uM
Description: Compounds were screened for their ability to inhibit ATR kinase using a radioactive-phosphate incorporation assay. Assays were carried out in a mixture of 50 mM Tris/HCl (pH 7.5), 10 mM MgCl2 and 1 mM DTT. Final substrate concentrations were 10 μM [γ-33P]ATP (3mCi 33P ATP/mmol ATP, Perkin Elmer) and 800 μM target peptide ([…] (SEQ. ID NO: 1)).
Assays were carried out at 25° C. in the presence of 5 nM full-length ATR. An assay stock buffer solution was prepared containing all of the reagents listed above, with the exception of ATP and the test compound of interest. 13.5 μL of the stock solution was placed in a 96 well plate followed by addition of 2 μL of DMSO stock containing serial dilutions of the test compound (typically starting from a final concentration of 15 μM with 3-fold serial dilutions) in duplicate (final DMSO concentration 7%). The plate was pre-incubated for 10 minutes at 25° C. and the reaction initiated by addition of 15 μl. [γ-33P]ATP (final concentration 10 μM).
The reaction was stopped after […] by the addition of 30 μL 0.1 M phosphoric acid containing 2 mM ATP. A multiscreen phosphocellulose filter 96-well plate (Millipore, Cat no. MAPHN0B50) was pretreated with 100 μL 0.2M phosphoric acid prior to the addition of 45 μL of the stopped assay mixture. The plate was washed with 5×200 μL 0.2 M phosphoric acid. After drying, 100 μL Optiphase ‘SuperMix’ liquid scintillation cocktail (Perkin Elmer) was added to the well prior to scintillation counting (1450 Microbeta Liquid Scintillation Counter, Wallac).
After removing mean background values for all of the data points, Ki(app) data were calculated from non-linear regression analysis of the initial rate data using the Prism software package (GraphPad Prism version 3.0cx for Macintosh, GraphPad Software, San Diego Calif., USA).

T1 sequence (Q13535 whole entry): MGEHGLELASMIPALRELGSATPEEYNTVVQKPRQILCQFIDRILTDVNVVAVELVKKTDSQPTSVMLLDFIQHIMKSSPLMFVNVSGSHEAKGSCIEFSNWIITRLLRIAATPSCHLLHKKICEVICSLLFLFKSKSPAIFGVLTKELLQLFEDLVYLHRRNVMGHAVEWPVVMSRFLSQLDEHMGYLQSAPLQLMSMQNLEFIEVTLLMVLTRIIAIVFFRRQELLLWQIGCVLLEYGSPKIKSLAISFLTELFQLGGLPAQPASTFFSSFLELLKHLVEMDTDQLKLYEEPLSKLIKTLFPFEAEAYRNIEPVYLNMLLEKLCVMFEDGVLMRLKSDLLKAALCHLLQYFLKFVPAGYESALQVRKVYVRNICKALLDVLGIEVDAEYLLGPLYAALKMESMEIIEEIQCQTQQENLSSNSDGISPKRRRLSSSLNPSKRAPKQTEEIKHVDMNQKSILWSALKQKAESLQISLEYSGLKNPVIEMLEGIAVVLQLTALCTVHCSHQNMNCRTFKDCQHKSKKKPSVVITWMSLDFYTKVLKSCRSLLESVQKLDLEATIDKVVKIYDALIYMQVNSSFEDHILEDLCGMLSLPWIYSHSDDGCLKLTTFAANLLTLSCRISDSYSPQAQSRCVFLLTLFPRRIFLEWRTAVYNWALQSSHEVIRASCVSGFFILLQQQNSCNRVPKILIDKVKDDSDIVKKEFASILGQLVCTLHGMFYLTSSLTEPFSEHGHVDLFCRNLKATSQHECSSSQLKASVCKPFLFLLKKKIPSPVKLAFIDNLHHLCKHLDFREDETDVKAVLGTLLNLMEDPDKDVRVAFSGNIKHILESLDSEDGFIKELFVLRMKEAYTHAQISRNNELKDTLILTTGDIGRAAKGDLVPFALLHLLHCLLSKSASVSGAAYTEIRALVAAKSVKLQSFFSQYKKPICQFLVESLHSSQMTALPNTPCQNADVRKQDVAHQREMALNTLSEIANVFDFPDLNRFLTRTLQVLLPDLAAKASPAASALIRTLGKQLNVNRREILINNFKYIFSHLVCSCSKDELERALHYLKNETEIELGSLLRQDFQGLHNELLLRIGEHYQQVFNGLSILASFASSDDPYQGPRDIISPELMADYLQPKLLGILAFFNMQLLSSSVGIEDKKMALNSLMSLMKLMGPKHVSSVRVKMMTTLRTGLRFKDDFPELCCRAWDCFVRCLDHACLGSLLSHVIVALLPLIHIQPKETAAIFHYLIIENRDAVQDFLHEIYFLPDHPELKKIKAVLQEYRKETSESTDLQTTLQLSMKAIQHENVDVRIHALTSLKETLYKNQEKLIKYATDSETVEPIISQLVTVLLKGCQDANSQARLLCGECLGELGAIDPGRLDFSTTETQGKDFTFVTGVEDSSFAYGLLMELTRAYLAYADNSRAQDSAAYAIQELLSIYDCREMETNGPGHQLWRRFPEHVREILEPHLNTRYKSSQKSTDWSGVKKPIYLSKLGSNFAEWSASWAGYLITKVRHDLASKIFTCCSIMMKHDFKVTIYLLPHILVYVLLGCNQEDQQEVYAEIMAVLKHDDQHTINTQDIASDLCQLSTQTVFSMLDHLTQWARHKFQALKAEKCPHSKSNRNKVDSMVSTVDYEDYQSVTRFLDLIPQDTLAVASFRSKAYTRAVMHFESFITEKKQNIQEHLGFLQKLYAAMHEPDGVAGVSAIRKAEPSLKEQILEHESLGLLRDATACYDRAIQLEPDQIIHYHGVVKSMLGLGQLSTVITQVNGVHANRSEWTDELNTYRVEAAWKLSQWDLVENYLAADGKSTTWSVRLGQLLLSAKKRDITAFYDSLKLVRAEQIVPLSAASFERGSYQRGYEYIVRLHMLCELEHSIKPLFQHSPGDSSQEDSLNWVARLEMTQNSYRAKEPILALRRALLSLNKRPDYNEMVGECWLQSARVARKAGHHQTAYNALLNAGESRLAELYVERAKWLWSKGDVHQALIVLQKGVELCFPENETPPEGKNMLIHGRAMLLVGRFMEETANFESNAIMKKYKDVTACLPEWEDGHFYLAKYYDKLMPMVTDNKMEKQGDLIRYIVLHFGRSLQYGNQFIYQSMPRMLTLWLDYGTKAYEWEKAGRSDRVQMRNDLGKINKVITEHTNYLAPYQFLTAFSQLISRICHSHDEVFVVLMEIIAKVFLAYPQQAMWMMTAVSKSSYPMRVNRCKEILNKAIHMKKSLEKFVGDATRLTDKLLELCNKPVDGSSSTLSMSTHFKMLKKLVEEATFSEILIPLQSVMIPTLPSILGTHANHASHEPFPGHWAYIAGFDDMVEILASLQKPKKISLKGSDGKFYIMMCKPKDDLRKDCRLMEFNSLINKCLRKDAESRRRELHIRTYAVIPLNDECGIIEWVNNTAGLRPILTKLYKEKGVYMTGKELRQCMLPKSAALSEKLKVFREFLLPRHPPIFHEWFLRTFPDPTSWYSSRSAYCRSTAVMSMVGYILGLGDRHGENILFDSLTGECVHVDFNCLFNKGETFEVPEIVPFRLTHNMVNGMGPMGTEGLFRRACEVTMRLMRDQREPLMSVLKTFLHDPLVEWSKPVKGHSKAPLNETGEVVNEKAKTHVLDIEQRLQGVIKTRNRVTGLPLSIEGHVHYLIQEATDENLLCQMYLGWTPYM

Row | Structure (SMILES) | Ki | % inhibition of ATR | inhibition at 8 µM
1 | CC(C)n1cc(-c2cnc(N)c(OCc3ccccc3)n2)ccc1=O [Compound V-15, 5-(5-amino-6-(benzyloxy)pyrazin-2-yl)-1-isopropylpyridin-2(1H)-one] | 100 to 1000 nM | – | –
2 | CS(=O)(=O)c1ccc(-c2cnc(N)c(NS(=O)(=O)c3ccccc3)n2)cc1 [Compound V-14, N-(3-amino-6-(4-(methylsulfonyl)phenyl)pyrazin-2-yl)benzenesulfonamide] | > 1000 nM | no detectable inhibition | –
3 | CC(C)S(=O)(=O)c1ccc(-c2cnc(N)c(N3CCN(c4ccccc4)CC3)n2)cc1 [Compound V-1, 5-(4-Isopropylsulfonylphenyl)-3-(4-phenylpiperazin-1-yl)pyrazin-2-amine] | – | no detectable inhibition | –
4 | CC(C)S(=O)(=O)c1ccc(-c2cnc(N)c(NC[C@@H](O)c3ccccc3)n2)cc1 [Compound V-7, (1S)-2-[[3-Amino-6-(4-isopropylsulfonylphenyl)pyrazin-2-yl]amino]-1-phenyl-ethanol] | > 1000 nM | – | 30%
5 | CC(C)S(=O)(=O)c1ccc(-c2cnc(N)c(NCC3=CC(O)CC=C3)n2)cc1 (centres unmarked) [Compound V-4] | 100 to 1000 nM | – | –
6 | CC(C)S(=O)(=O)c1ccc(-c2cnc(N)c(/C(F)=C/c3ccccc3)n2)cc1 [Compound V-16, (Z)-3-(1-fluoro-2-phenylvinyl)-5-(4-(isopropylsulfonyl)phenyl)pyrazin-2-amine] | ≤ 100 nM | – | –
7 | CC(C)S(=O)(=O)c1ccc(-c2cnc(N)c(NCc3ccccc3)n2)cc1 [Compound V-3] | > 1000 nM | – | 10%
8 | CS(=O)(=O)c1ccc(-c2cnc(N)c(/C=C/c3ccccc3)n2)cc1 [Compound V-10] | ≤ 100 nM | – | –
9 | CC(C)S(=O)(=O)c1ccc(-c2cnc(N)c(NCCc3ccccc3)n2)cc1 [Compound V-13, 6-(4-(isopropylsulfonyl)phenyl)-N2-phenethylpyrazine-2,3-diamine] | > 1000 nM | – | –
10 | CS(=O)(=O)c1ccc(-c2cnc(N)c(OCc3ccccc3)n2)cc1 [Compound V-9] | ≤ 100 nM | – | –
11 | CC(C)S(=O)(=O)c1ccc(-c2cnc(N)c(N3CCC(N)C3)n2)cc1 (centres unmarked) [Compound V-2, 3-(3-Aminopyrrolidin-1-yl)-5-(4-isopropylsulfonylphenyl)pyrazin-2-amine] | > 1000 nM | – | 10%
12 | CC(C)S(=O)(=O)c1ccc(-c2cnc(N)c(NC[C@H](O)c3ccccc3)n2)cc1 [Compound V-6, (1R)-2-[[3-amino-6-(4-isopropylsulfonylphenyl)pyrazin-2-yl]amino-]-1-phenyl-ethanol] | > 1000 nM | – | 10%
13 | CC(C)S(=O)(=O)c1ccc(-c2cnc(N)c(C(=O)c3ccccc3)n2)cc1 [Compound V-12, [3-Amino-6-(4-isopropylsulfonylphenyl)pyrazin-2-yl]-phenyl-methanone] | ≤ 100 nM | – | –
14 | CC(C)S(=O)(=O)c1ccc(-c2cnc(N)c(NCCc3ccccc3)n2)cc1 [Compound V-5, 5-(4-Isopropylsulfonylphenyl)-N3-phenethyl-pyrazine-2,3-diamine] | – | – | 20%
15 | CC(C)S(=O)(=O)c1ccc(-c2cnc(N)c(CCc3ccccc3)n2)cc1 [Compound V-11, 5-(4-Isopropylsulfonylphenyl)-3-phenethyl-pyrazin-2-amine] | ≤ 100 nM | – | –
